Source: ChEMBL document CHEMBL3885861, “Open TG-GATES”

Species: Rattus norvegicus
Test: Open TG-GATES - Regimen: Single
Assay type: toxicity, organism-based, Sprague-Dawley
Parameters: regimen Single, gender Male, age 6 weeks
Details: in vivo, po, 100 mg/kg, route gavage, dose level Low; for APTT / Bas / Eos / Fbg / Hb / Ht / Lym / MCH / MCHC / MCV / Mono / Neu / PT / Plat / RBC / Ret / WBC: tissue Blood; for KIDNEY_L / KIDNEY_R / KIDNEY_TOTAL: tissue Kidney; for LIVER: tissue Liver; for A/G / ALP / ALT / AST / BUN / CRE / Ca / Cl / DBIL / GLC / IP / K / LDH / Na / PL / RALB / TBIL / TC / TG / TP / gamma-GTP: tissue Plasma

SMILES: CN/C(=N/CCSCc1nc[nH]c1C)NC#N [CIMETIDINE]
- TERMINAL_BW (3 h): 214.5 g
- APTT (3 h): 18.3 s
- Bas (3 h): 0%
- Eos (3 h): 1%
- Fbg (3 h): 220.4 mg/dL
- Hb (3 h): 13.1 g/dL
- Ht (3 h): 38.2%
- Lym (3 h): 78.6%
- MCH (3 h): 21.9 pg
- MCHC (3 h): 34.2%
- MCV (3 h): 64.1 fL
- Mono (3 h): 2.8%
- Neu (3 h): 16.8%
- PT (3 h): 12.8 s
- Plat (3 h): 127.8 x10_4/uL
- RBC (3 h): 596.2 x10_4/ul
- Ret (3 h): 8.3%
- WBC (3 h): 109.3 x10_2/uL
- KIDNEY_L (3 h): 1 g
- KIDNEY_R (3 h): 1 g
- KIDNEY_TOTAL (3 h): 2 g
- LIVER (3 h): 10 g
- A/G (3 h): 1.7
- ALP (3 h): 1167.2 IU/L
- ALT (3 h): 39.4 IU/L
- AST (3 h): 70.2 IU/L
- BUN (3 h): 9.6 mg/dL
- CRE (3 h): 0.4 mg/dL
- Ca (3 h): 10.6 mg/dL
- Cl (3 h): 102.6 meq/L
- DBIL (3 h): 0.072 mg/dL
- GLC (3 h): 195 mg/dL
- IP (3 h): 9.5 mg/dL
- K (3 h): 4 meq/L
- LDH (3 h): 154.4 IU/L
- Na (3 h): 140.6 meq/L
- PL (3 h): 140.6 mg/dL
- RALB (3 h): 3.4 g/dL
- TBIL (3 h): 0.1 mg/dL
- TC (3 h): 75.2 mg/dL
- TG (3 h): 47.4 mg/dL
- TP (3 h): 5.5 g/dL
- gamma-GTP (3 h): 0.6 IU/L
- TERMINAL_BW (6 h): 209.9 g
- APTT (6 h): 18.8 s
- Bas (6 h): 0%
- Eos (6 h): 1%
- Fbg (6 h): 216.8 mg/dL
- Hb (6 h): 13.2 g/dL
- Ht (6 h): 38%
- Lym (6 h): 77.6%
- MCH (6 h): 22.2 pg
- MCHC (6 h): 34.8%
- MCV (6 h): 63.7 fL
- Mono (6 h): 2.8%
- Neu (6 h): 17.6%
- PT (6 h): 13.1 s
- Plat (6 h): 135.7 x10_4/uL
- RBC (6 h): 596.8 x10_4/ul
- Ret (6 h): 7.8%
- WBC (6 h): 98.4 x10_2/uL
- KIDNEY_L (6 h): 1 g
- KIDNEY_R (6 h): 1 g
- KIDNEY_TOTAL (6 h): 1.9 g
- LIVER (6 h): 9.7 g
- A/G (6 h): 1.6
- ALP (6 h): 885 IU/L
- ALT (6 h): 34.4 IU/L
- AST (6 h): 64 IU/L
- BUN (6 h): 9.6 mg/dL
- CRE (6 h): 0.4 mg/dL
- Ca (6 h): 10.6 mg/dL
- Cl (6 h): 102.4 meq/L
- DBIL (6 h): 0.07 mg/dL
- GLC (6 h): 194.6 mg/dL
- IP (6 h): 9.6 mg/dL
- K (6 h): 3.7 meq/L
- LDH (6 h): 180 IU/L
- Na (6 h): 141.4 meq/L
- PL (6 h): 138 mg/dL
- RALB (6 h): 3.4 g/dL
- TBIL (6 h): 0.1 mg/dL
- TC (6 h): 70.6 mg/dL
- TG (6 h): 61.4 mg/dL
- TP (6 h): 5.5 g/dL
- gamma-GTP (6 h): 1.8 IU/L
- TERMINAL_BW (9 h): 209.3 g
- APTT (9 h): 20.3 s
- Bas (9 h): 0%
- Eos (9 h): 1%
- Fbg (9 h): 246 mg/dL
- Hb (9 h): 12.9 g/dL
- Ht (9 h): 36.9%
- Lym (9 h): 74%
- MCH (9 h): 22.4 pg
- MCHC (9 h): 34.9%
- MCV (9 h): 64.3 fL
- Mono (9 h): 2.4%
- Neu (9 h): 21%
- PT (9 h): 13.7 s
- Plat (9 h): 128.2 x10_4/uL
- RBC (9 h): 575.2 x10_4/ul
- Ret (9 h): 8.7%
- WBC (9 h): 88 x10_2/uL
- KIDNEY_L (9 h): 1 g
- KIDNEY_R (9 h): 1 g
- KIDNEY_TOTAL (9 h): 1.9 g
- LIVER (9 h): 9.2 g
- A/G (9 h): 1.6
- ALP (9 h): 890.8 IU/L
- ALT (9 h): 31.4 IU/L
- AST (9 h): 62 IU/L
- BUN (9 h): 11.6 mg/dL
- CRE (9 h): 0.3 mg/dL
- Ca (9 h): 10.5 mg/dL
- Cl (9 h): 103.4 meq/L
- DBIL (9 h): 0.076 mg/dL
- GLC (9 h): 194.4 mg/dL
- IP (9 h): 10 mg/dL
- K (9 h): 3.9 meq/L
- LDH (9 h): 137.4 IU/L
- Na (9 h): 141.4 meq/L
- PL (9 h): 135 mg/dL
- RALB (9 h): 3.4 g/dL
- TBIL (9 h): 0.1 mg/dL
- TC (9 h): 74.4 mg/dL
- TG (9 h): 42.8 mg/dL
- TP (9 h): 5.5 g/dL
- gamma-GTP (9 h): 1.2 IU/L
- TERMINAL_BW (24 h): 225.6 g
- APTT (24 h): 19.4 s
- Bas (24 h): 0%
- Eos (24 h): 1%
- Fbg (24 h): 227.2 mg/dL
- Hb (24 h): 12.7 g/dL
- Ht (24 h): 37.8%
- Lym (24 h): 79.8%
- MCH (24 h): 21.5 pg
- MCHC (24 h): 33.7%
- MCV (24 h): 63.7 fL
- Mono (24 h): 3.2%
- Neu (24 h): 14.8%
- PT (24 h): 12.8 s
- Plat (24 h): 135 x10_4/uL
- RBC (24 h): 593.4 x10_4/ul
- Ret (24 h): 7.2%
- WBC (24 h): 109.1 x10_2/uL
- KIDNEY_L (24 h): 1 g
- KIDNEY_R (24 h): 1.1 g
- KIDNEY_TOTAL (24 h): 2.1 g
- LIVER (24 h): 11.2 g
- A/G (24 h): 1.7
- ALP (24 h): 1060 IU/L
- ALT (24 h): 35.2 IU/L
- AST (24 h): 64.4 IU/L
- BUN (24 h): 15.8 mg/dL
- CRE (24 h): 0.4 mg/dL
- Ca (24 h): 10.8 mg/dL
- Cl (24 h): 102.2 meq/L
- DBIL (24 h): 0.1 mg/dL
- GLC (24 h): 199.4 mg/dL
- IP (24 h): 6.9 mg/dL
- K (24 h): 4.2 meq/L
- LDH (24 h): 155.6 IU/L
- Na (24 h): 140 meq/L
- PL (24 h): 143.8 mg/dL
- RALB (24 h): 3.4 g/dL
- TBIL (24 h): 0.2 mg/dL
- TC (24 h): 73.2 mg/dL
- TG (24 h): 98.8 mg/dL
- TP (24 h): 5.5 g/dL
- gamma-GTP (24 h): 1.6 IU/L
